According to paper PMC3942691, “The Dipeptide Monoester Prodrugs of Floxuridine and Gemcitabine—Feasibility of Orally Administrable Nucleoside Analogs” (Pharmaceuticals, 2014):
Where two headings read alike, the source gives them in different places. Marks after values point to notes of the source that are not given here.

Tests used:
Caco-2 cell homogenates [1] = assay: Enzymatic stability in Caco-2 cell homogenates; format: in vitro ADME; settings: 500 µg/mL protein, 37 °C
Experimental: (§1) Confluent Caco-2, Panc-1, and AsPC-1cells were rinsed twice with phosphate buffered saline (PBS). The cells were lysed with phosphate buffer (pH 7.4) by ultrasonication (Micro ultrasonic cell disrupter Model KT40, Kontes, Vineland, NJ, USA), and pelleted by centrifugation for 5 min at 1,000 × g. Protein amount was quantified with the Bio-Rad (Hercules, CA, USA) DC Protein Assay using bovine serum albumin as a standard. The amount of protein was adjusted to 500 µg/mL and hydrolysis reactions were carried out in 96-well plates (Corning). […] The filtrate was then analyzed via reverse-phase HPLC.
(§2) The stability samples of prodrugs and their metabolites, and perfusion samples were determined on an Agilent HPLC system (Agilent Technologies, Santa Clara, CA, USA). […] Standard curves generated for each prodrug and their parent drug were utilized for quantitation of integrated area under peaks. […]
(§3) The experiments concerning drug and their prodrug stability were performed at 37 °C in 0.01 N HCl, SIF (pH 6.0), and pH 7.4 phosphate buffer. […] Prodrug metabolites such as floxuridine, 5-fluorouracil (5-FU), gemcitabine, 2′-deoxy-2′,2′-difluorouridine, uracil, and cytosine were monitored along with prodrug disappearance in this experiment.

mouse jejunum = assay: In situ single-pass intestinal perfusion in mice (Peff); format: in vivo; settings: for Peff, mouse perfusion: 100 µM; for fold higher membrane permeability than parent drug: in situ
Experimental: The perfusion buffer (pH6.0) consisted of 145 mM NaCl, 0.5 mM MgCl2, 1 NaH2PO4, 1 mM CaCl2, 3 mM KCl, 5 mM glucose, and 5 mM MES. The pH of the buffer was adjusted to pH6.0. This perfusion buffer also contained phenol-red (14 µM) as a non-absorbable marker for water flux measurements.
All animal experiments were conducted using protocols approved by the University of Michigan Committee of Use and Care of Animals (UCUCA). Female BALB/c mice (Charles River, IN, USA) weighing 20–25 g were used for all perfusion studies. Prior to each experiment, mice were fasted overnight with free access to water.
The procedure for the in situ single-pass intestinal perfusion is previously reported. Briefly, mice were anesthetized with an i.m. injection of ketamine-xylazine mixture (ketamine: 80–120 mg/kg, xylazine: 5–10 mg/kg) and placed on a heated pad maintained at 37 °C. The abdomen was opened by a midline incision and a jejunal segment (approximately 10 cm) was carefully exposed to cannulate both ends with flexible PVC tubing (2.06 mm i.d., Fisher Scientific Inc., Pittsburgh, PA, USA). All solutions were incubated in a 37 °C water-bath. The isolated segment was rinsed with blank perfusion buffer to clean out any residual debris.
At the start of the study, the test compound (100 µM) in perfusion buffer (pH 6.0) including phenol red was perfused through the intestinal segment (Watson-Marlow Pump 323S, Watson-Marlow Bredel Inc., Wilimington, MA, USA), at the flow rate of 0.1 mL/min. The perfusion buffer was perfused for 30 min to assure steady-state and samples were taken in every 10 min for 90 min. At the end of perfusion, blood samples were collected by cardiac puncture. Blood samples with heparin were centrifuged at 1,000 × g for 10 min at 4 °C to collect plasma samples for LC-MS analysis. Following the termination of the experiment, the length of each perfused intestinal segment was measured.
The net water flux in the mouse perfusion studies was determined using phenol red (14 µM), a non-absorbed and non-metabolized marker. The measured Cout/Cin ratio of test compound was corrected for water flux according to the following equation: [drawing 1] where Cin phenol red and Cout phenol red are equal to the concentration of phenol red in the inlet and the outlet samples, respectively. The effective permeability (Peff; cm/s) through the mouse intestinal wall in the single-pass intestinal perfusion studies was determined according to the following equation: [drawing 2] where Q is the perfusion buffer flow rate (0.1 mL/min), C′out/C′in is the ratio of the outlet/inlet concentration of test compound that is adjusted for water transport, R is the radius of the intestinal segment (set to 0.1 cm), and L is the length of the perfused intestinal segment.
The stability samples of prodrugs and their metabolites, and perfusion samples were determined on an Agilent HPLC system (Agilent Technologies, Santa Clara, CA, USA). The HPLC system consisted of Agilent pumps (1100 series), an Agilent autosampler (1200 series), and an Agilent UV-Vis detector (1100 series) controlled by Chemstation® 32 software (version B.01.03). Samples were resolved in an Agilent Eclipse Plus C18 reverse-phase column (3.5 µm, 4.6 × 75 mm) equipped with a guard column. The mobile phase consisted of 0.1% TFA/water (Solvent A) and 0.1% TFA/acetonitrile (Solvent B) with the solvent B gradient changing from 0%–56% at a rate of […] during a 15 min run for gemcitabine and gemcitabine prodrugs. Standard curves generated for each prodrug and their parent drug were utilized for quantitation of integrated area under peaks. The detection wavelength was 254 nm and spectra were acquired in the 220–380 nm wavelength range. The detection wavelength for phenol red was 430 nm.

[2] = test system: Caco-2, Panc-1, and AsPC-1 cell homogenates; assay: Enzymatic stability compared across Caco-2, Panc-1 and AsPC-1 cell homogenates; format: in vitro ADME
Experimental: as §1
The experiments concerning drug and their prodrug stability were performed at 37 °C in 0.01 N HCl, SIF (pH 6.0), and pH 7.4 phosphate buffer. […] Prodrug metabolites such as floxuridine, 5-fluorouracil (5-FU), gemcitabine, 2′-deoxy-2′,2′-difluorouridine, uracil, and cytosine were monitored along with prodrug disappearance in this experiment. However, the mass balance could not be established because 5-FU, cytosine and uracil were metabolized even further and those metabolites could not be quantified by HPLC [11, 50]. The specific kinetic parameters in drug/prodrug metabolism could not be determined without the mass balance and the data of enzymatic activities and their expression levels because those metabolic activities were simultaneously taken place. […]

Caco-2 cell homogenates [3] = settings: cited from earlier work
AsPC-1 cell homogenates = settings: cited from earlier work
[4] = Enzymatic stability in Caco-2 cell homogenates; format: in vitro ADME; settings: human, Caco-2, pH 7.4; 500 µg/mL protein, 37 °C; read-out: Caco-2 cell homogenates t1/2
Experimental: as §1, §2, §3

Compound	Caco-2 cell homogenates t1/2 (Caco-2 cell homogenates [1]) [min]	Peff, mouse perfusion (mouse jejunum; perfusion buffer pH 6.0)	Peff, mouse perfusion (mouse jejunum; perfusion buffer pH 6.0, listed as gemcitabine) [cm/s]	degradation in AsPC-1 cells compared with Caco-2 and Panc-1 cells [2]	fold higher membrane permeability than parent drug (mouse jejunum) [fold]	Caco-2 cell homogenates t1/2 (Caco-2 cell homogenates [3])	AsPC-1 cell homogenates t1/2 (AsPC-1 cell homogenates)	half-life [4] [min]	Peff, mouse perfusion (mouse jejunum; perfusion buffer pH 6.0, listed as floxuridine) [cm/s]
2′,2′-difluoro-2′-deoxyuridine [Gemcitabine]	105.0 ± 6.1	0.2 ± 0.2 ×10^−5 cm/s	2e-06	three- to four- times faster					
NC(Cc1ccccc1)C(=O)NC(Cc1ccc(O)cc1)C(=O)OCC1OC(n2cc(F)c(=O)[nH]c2=O)CC1O [5′-L-Phenylalanyl-L-tyrosyl-floxuridine]		1.9 ± 0.1 ×10^−5 cm/s			19.0	103.8 ± 55.5 ^b min	59.7 ± 1.4 ^b min		
Nc1ccn(C2OC(COC(=O)C(Cc3ccc(O)cc3)NC(=O)C(N)Cc3ccccc3)C(O)C2(F)F)c(=O)n1 [5′-L-Phenylalanyl-L-tyrosyl-gemcitabine]		2.2 ± 0.4 ×10^−5 cm/s			11.0			14.7 ± 4.4	
O=c1[nH]c(=O)n([C@H]2C[C@H](O)[C@@H](CO)O2)cc1F [Floxuridine, 5-fluoro-2′-deoxyuridine]		0.1 ± 0.8 ×10^−5 cm/s		two- to six-times faster		14.3 ± 7.0 ^a min	6.4 ± 3.2 ^a min		1e-06
